Source: PMC5976250 (The Biochemical journal, 2017)

Columns and labels:
[1] = test system: full-length Cx45 (mCx45-Rluc) interaction with Venus–CaM; experiment: BRET assay of CaM–Cx45 interaction in live HEK293 cells; assay type: cell-based, mouse (Cx45); rat (CaM); details: 50 μM BAPTA-AM
CaM [2] = biological target: T1, CaM (Rattus norvegicus, UniProt P0DP29); details: earlier connexin peptide studies; ref [49]; cited from earlier work
CaM [3] = details: α-family; ref [34],[49]; cited from earlier work
[4] = test system: electrical uncoupling (gap junctions), amphibian embryonic cells, crayfish axons; details: cited from earlier work; for effect on uncoupling: Xenopus embryonic cells, ref [73], crayfish axons, ref [74],[75]
CaM [5] = biological target: T1, CaM; details: complex formation; ref [49]; listed as Cx50-derived peptide; cited from earlier work

## CC(=O)OCOC(=O)CN(CC(=O)OCOC(C)=O)c1ccccc1OCCOc1ccccc1N(CC(=O)OCOC(C)=O)CC(=O)OCOC(C)=O [BAPTA-AM]
[1]
  intracellular Ca2+ after treatment: ~ 0.27 nM
[1]; 20 min
  BRET signal (ratio 525/460 nm) after treatment: ~ 0.03

## Cx43p136–158: α-family connexin Cx43 peptide
CaM [2]
  chemical shift change pattern of CaM (literature): localized change
CaM [3]
  binding mode to CaM (literature): compact form

## Cx44p132–153: α-family connexin Cx44 peptide
CaM [3]
  binding mode to CaM (literature): compact form

## Clc1ccc(C(c2ccc(Cl)cc2)n2cc[n+](CC(OCc3ccc(Cl)cc3Cl)c3ccc(Cl)cc3Cl)c2)cc1 (centres unmarked) [calmidazolium]
[4]
  effect on uncoupling: prevent uncoupling

## Cx50p141–166: α-family connexin Cx50 peptide (FRLEGTLLRTYICHIIFKTLFEVGFI; UniProt P48165 141-166, looked up, fragment)
CaM [2]
  chemical shift change pattern of CaM (literature): localized change
CaM [5]
  decrease in hydrodynamic radius of CaM: decreased significantly
CaM [3]
  binding mode to CaM (literature): embraced compact form

## CN1CCN(CCCN2c3ccccc3Sc3ccc(C(F)(F)F)cc32)CC1 [trifluoperazine (TFP), trifluoperazine]
[4]; ref [72]
  effect on electrical uncoupling of amphibian embryonic cells: protected amphibian embryonic cells from electrical uncoupling

## Cl.NCCCCCCNS(=O)(=O)c1cccc2c(Cl)cccc12 [W7, N-(6-aminohexyl)-5-chloro-1-naphthalenesulfonamide hydrochloride]
[4]
  effect on uncoupling: prevent uncoupling
